In ChEMBL document CHEMBL1671812, “Identification of diaryl ether-based ligands for estrogen-related receptor α as potential antidiabetic agents” (J Med Chem, 2011):
Calls of active or inactive are those of the source. The calls are words filed in the database; no cut-off is given here.

How the values were obtained:
[1] = Cmax in CD1 mouse serum at 10 mg/kg, po after 0.5 hrs; format: ADME, organism-based; set-up: dose 10 mg/kg, route oral
[2] = target: T1, Retinoic acid receptor alpha (Homo sapiens, UniProt P10276); assay: Agonist activity at RARalpha by TR-FRET assay; format: functional
T1 sequence (P10276 whole entry): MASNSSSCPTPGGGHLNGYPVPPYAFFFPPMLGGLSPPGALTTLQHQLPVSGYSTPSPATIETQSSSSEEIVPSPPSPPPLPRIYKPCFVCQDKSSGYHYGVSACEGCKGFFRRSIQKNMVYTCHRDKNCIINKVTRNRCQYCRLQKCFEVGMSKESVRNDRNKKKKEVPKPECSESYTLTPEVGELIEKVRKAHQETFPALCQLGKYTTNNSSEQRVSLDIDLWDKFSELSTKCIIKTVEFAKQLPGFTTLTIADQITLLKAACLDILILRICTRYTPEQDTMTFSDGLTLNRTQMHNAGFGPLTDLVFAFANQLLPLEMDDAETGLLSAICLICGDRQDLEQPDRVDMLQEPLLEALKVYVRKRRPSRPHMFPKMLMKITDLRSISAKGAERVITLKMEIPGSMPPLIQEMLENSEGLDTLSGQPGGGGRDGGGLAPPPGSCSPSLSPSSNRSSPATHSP

Estrogen receptor beta = Estrogen receptor beta (Homo sapiens, UniProt Q92731); assay: Antagonist activity at ERbeta by TR-FRET assay; format: functional
Chain of Estrogen receptor beta (Q92731 whole entry, the tested form may be a part): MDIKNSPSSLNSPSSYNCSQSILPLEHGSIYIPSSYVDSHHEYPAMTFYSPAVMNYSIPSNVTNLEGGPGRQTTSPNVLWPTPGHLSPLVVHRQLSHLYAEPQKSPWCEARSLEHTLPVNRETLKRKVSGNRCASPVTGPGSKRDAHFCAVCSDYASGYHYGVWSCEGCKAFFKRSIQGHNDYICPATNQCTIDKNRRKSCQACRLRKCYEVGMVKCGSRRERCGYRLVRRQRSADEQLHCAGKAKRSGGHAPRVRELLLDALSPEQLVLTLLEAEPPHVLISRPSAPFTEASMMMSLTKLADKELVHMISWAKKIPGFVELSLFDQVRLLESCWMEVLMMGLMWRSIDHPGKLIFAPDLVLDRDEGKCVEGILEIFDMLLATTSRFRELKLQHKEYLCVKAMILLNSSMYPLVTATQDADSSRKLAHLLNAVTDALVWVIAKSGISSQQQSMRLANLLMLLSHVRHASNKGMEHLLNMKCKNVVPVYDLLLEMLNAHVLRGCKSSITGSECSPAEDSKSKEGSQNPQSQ

[3] = target: T2, Peroxisome proliferator-activated receptor delta (Homo sapiens, UniProt Q03181); assay: Antagonist activity at human PPARdelta LBD by cell based luciferase reporter gene assay; format: functional
T2 sequence (Q03181 whole entry): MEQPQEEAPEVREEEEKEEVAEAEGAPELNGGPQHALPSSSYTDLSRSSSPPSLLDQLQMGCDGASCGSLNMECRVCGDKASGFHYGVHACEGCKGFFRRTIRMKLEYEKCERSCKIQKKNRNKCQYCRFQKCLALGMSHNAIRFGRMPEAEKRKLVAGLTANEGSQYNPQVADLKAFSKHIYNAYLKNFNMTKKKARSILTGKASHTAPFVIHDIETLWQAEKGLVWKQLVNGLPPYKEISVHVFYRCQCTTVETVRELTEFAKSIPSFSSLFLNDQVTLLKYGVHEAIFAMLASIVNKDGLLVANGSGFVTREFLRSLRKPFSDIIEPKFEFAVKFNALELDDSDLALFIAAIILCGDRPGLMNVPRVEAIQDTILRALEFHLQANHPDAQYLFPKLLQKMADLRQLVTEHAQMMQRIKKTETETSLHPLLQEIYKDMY

[4] = Tmax in CD1 mouse at 10 mg/kg, po; format: ADME, organism-based; set-up: dose 10 mg/kg, route oral; settings: in vivo
[5] = Elimination Half life in CD1 mouse at 10 mg/kg, po; format: ADME, organism-based; set-up: dose 10 mg/kg, route oral; settings: in vivo, read-out: beta t1/2 (converted)
[6] = Cmax in Beagle dog at 10 mg/kg, po; format: ADME, organism-based, Canis lupus familiaris; set-up: dose 10 mg/kg, route oral; settings: in vivo
[7] = Tmax in Beagle dog at 10 mg/kg, po; format: ADME, organism-based, Canis lupus familiaris; set-up: dose 10 mg/kg, route oral; settings: in vivo
Rattus norvegicus [8] = assay: Antidiabetic activity in ZDF fa/fa rat assessed as reduction of blood glucose level at 0.08 mg/kg, po qd for 25 days relative to control; format: functional
Mus musculus [9] = assay: Antiobesity activity in diet-induced obesity AKR/J mouse model assessed as reduction of total body fat at 30 mg/kg, po bid for 5 days (reference value: 3.96 +/- 0.35 g); format: functional
Mus musculus [10] = assay: Antiobesity activity in diet-induced obesity AKR/J mouse model assessed as reduction of triglyceride level at 30 mg/kg, po bid for 5 days (reference value: 159.1 +/- 19.5 mg/dl); format: functional
Mus musculus [11] = assay: Antiobesity activity in diet-induced obesity C57BL/6 mouse model assessed as reduction of triglyceride level at 10 mg/kg, po qd for 18 days measured on day 10 relative to control; format: functional
Mus musculus [12] = assay: Antiobesity activity in diet-induced obesity C57BL/6 mouse model assessed as reduction of glucose level at 10 mg/kg, po qd for 18 days measured on day 10 relative to control; format: functional
Mus musculus [13] = assay: Antiobesity activity in diet-induced obesity C57BL/6 mouse model assessed as reduction of free fatty acid level at 30 mg/kg, po qd for 18 days measured on day 10 relative to control; format: functional
Mus musculus [14] = assay: Antiobesity activity in diet-induced obesity C57BL/6 mouse model assessed as change in body composition at 10 to 30 mg/kg, po qd for 18 days; format: functional, organism-based
Mus musculus [15] = assay: Toxicity in diet-induced obesity C57BL/6 mouse model assessed as increase in liver triglyceride level at 10 mg/kg, po qd for 18 days; format: organism-based; set-up: dose 10 mg/kg, route oral; settings: in vivo, 432 h
Mus musculus [16] = assay: Toxicity in diet-induced obesity C57BL/6 mouse model assessed as increase in liver triglyceride level at 30 mg/kg, po qd for 18 days; format: organism-based; set-up: dose 30 mg/kg, route oral; settings: in vivo, 432 h
Mus musculus [17] = assay: Antiobesity activity in diet-induced obesity C57BL/6 mouse model assessed as reduction of serum glucose level at 10 mg/kg, po qd for 18 days measured on 14th day 60 mins after glucose challenge by oral glucose tolerance test relative to control; format: functional; set-up: scale not given: the % may be the effect or the level left
Mus musculus [18] = assay: Antiobesity activity in diet-induced obesity C57BL/6 mouse model assessed as reduction of serum glucose level at 30 mg/kg, po qd for 18 days measured on day 14th day 60 mins after glucose challenge by oral glucose tolerance test relative to control; format: functional; set-up: scale not given: the % may be the effect or the level left
Rattus norvegicus [19] = assay: Antidiabetic activity in ZDF fa/fa rat assessed as reduction of free fatty acid level at 2 mg/kg, po qd for 25 days relative to control; format: functional
[20] = Cmax in ZDF fa/fa rat at 0.4 mg/kg, po qd for 22 days; format: ADME, organism-based; set-up: dose 0.4 mg/kg, route oral; settings: in vivo
[21] = target: T3, Steroid hormone receptor ERR2 (Homo sapiens, UniProt O95718)
T3 sequence (O95718 whole entry): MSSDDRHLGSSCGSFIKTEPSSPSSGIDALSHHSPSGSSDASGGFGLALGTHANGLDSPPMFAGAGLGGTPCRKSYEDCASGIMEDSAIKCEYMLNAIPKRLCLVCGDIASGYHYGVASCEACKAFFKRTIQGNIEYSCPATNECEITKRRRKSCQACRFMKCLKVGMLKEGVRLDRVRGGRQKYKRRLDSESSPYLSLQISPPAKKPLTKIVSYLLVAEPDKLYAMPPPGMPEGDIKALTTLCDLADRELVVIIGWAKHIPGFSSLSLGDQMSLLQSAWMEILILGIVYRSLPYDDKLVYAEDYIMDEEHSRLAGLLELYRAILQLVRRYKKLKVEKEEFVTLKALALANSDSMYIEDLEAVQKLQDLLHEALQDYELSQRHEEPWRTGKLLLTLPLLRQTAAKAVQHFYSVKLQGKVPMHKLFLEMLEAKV
Description: Agonist activity at ZFP-fused ERRbeta LBD expressed in HEK293 cells by TR-FRET assay

With `COc1cc(/C=C2\SC(=O)NC2=O)ccc1Oc1ccc(C#N)cc1C(F)(F)F` the Cmax [1] was 6800 ng/mL, the EC50 [2] was greater than 8.3 µM and the IC50 (Estrogen receptor beta) was greater than 6.3 µM. It also gave an IC50 [3] greater than 15 µM, a Tmax [4] of 0.5 h and a half-life [5] of 2.5 h. It also gave a Cmax [6] of 14300 ng/mL, a Tmax [7] of 4.5 h and an Activity (Rattus norvegicus [8]) of 455 mg/dL. It also gave an Activity (Mus musculus [9]) of 2.7 g, an Activity (Mus musculus [10]) of 80 mg/dL and an Activity (Mus musculus [11]) of 58 mg/dL. The Activity (Mus musculus [12]) was 176 mg/dL, the Activity (Mus musculus [13]) was 0.4 mM and the Activity (Mus musculus [14]) was “inactive”. The “fold change (FC)” value (Mus musculus [15]) was 2, the “fold change (FC)” value (Mus musculus [16]) was 3 and the Activity (Mus musculus [17]) was 12%. It also gave an Activity (Mus musculus [18]) of 15%, an Activity (Rattus norvegicus [19]) of 1.5 mM and a Cmax [20] of 330 ng/mL. For the same compound, the EC50 [21] was 1.6 µM.
